Laboratory results as given in patent publication US11266634B2, “Methods for treating melanoma with human therapeutic agents” (Ankh Life Sciences Limited, priority 2014, dated 2022).

Tests used:
[1] = test system: human ovarian cancer cells (A1847); assay: Ovarian cancer spheroid cell death test; type: cell-based; conditions: 24 hour exposure to increasing doses; spheroids
Experimental: (§1) The respective cells were individually cultured in a growth medium prepared using RPMI-1640 medium containing 11.1 mM D-glucose with 10% fetal bovine serum, 10 mM HEPES, 2 mM L-glutamine, 1 mM sodium pyruvate, 0.05 mM 2-mercaptoethanol, and Antibiotic-Antimycotic. These cells were maintained in T75 tissue culture flasks in a humidified incubator at 37° C. and 5% CO2. The media were changed on a third day after cell plating, and the cells were passaged on day 5 by trypsinization.
(§2) Custom-made micromolds with 100 μm diameter wells were loaded with the cells (U.S. Pat. No. 8,735,154, incorporated by reference herein). The media were changed every day by partial replacement. Cell aggregates were allowed to form in the micromolds for 72 hours and then were transferred to a 100 mm non-treated tissue culture dishes for 3 additional days. The spheroids were passed through 70 μm and 100 μm cell strainers (#3431751 and #43152, Corning, Tewksbury, Mass.) and maintained in HEPES Balanced Salt Solution comprised of: 20 mM HEPES, 114 mMNaCl, 4.7 mM KCl, 1.2 mM KH2PO4, 1.16 mM MgSO4, 2.5 mM CaCl2, 25.5 mM NaHCO3 and 0.2% bovine serum albumin (fatty acid free), pH 7.2.
(§3) The cells were treated and tested as set forth in Example 1.

[2] = test system: human prostate cancer cells (22rv1); assay: Prostate cancer spheroid cell death test; type: cell-based; conditions: 24 hour exposure to increasing doses; spheroids
Experimental: as §1, §2, §3

[3] = test system: human lung cancer cells (H358); assay: Lung cancer spheroid cell death test; type: cell-based; conditions: 24 hour exposure to increasing doses; spheroids
Experimental: as §1, §2
The lymphomas treatment methods used were identical to those described in Example 2 relative to the pediatric leukemia cells, whereas the lung cancer treatment method was the same as described in Example 1.

ovarian cancer cells = conditions: low doses of doxorubicin alone (up to 0.158, unit not given)
Experimental: In this test, the synergism of GZ17-6.02 with doxorubicin (a common chemotherapy drug) was tested on ovarian cancer cells. In this test, increasing doses of doxorubicin were administered to ovarian cancer spheroids and cell deaths were measured, as described in Example 1. The protocol involved testing doxorubicin alone at various dosages (FIG. 8, doxorubicin alone—closed circles), with comparative tests using the various dosages of doxorubicin in combination with either 0.2 mg/mL (FIG. 8 open circles) or 0.4 mg/mL (FIG. 8 closed triangles) GZ17-6.02. Additionally, the induced cell death results from use of 0.2 mg/mL GZ17-6.02 alone (FIG. 8, line A) and 0.4 mg/mL GZ17-6.02 alone (FIG. 8, line B) were determined.

In the case of COc1ccc2c3c([nH]c2c1)C(C)=NCC3 [harmaline], the “cell death (number of live cells)” value [1] is reported as “demonstrated anticancer effects”, the “cell death (number of live cells)” value [2] is reported as “demonstrated anticancer effects” and the “cell death (number of live cells)” value [3] is reported as “demonstrated anticancer effects”.

For COc1ccc2c3c([nH]c2c1)[C@@H](C)NCC3 [tetrahydro-harmine], the “cell death (number of live cells)” value [1] was “demonstrated anticancer effects”, the “cell death (number of live cells)” value [2] was “demonstrated anticancer effects” and the “cell death (number of live cells)” value [3] was “demonstrated anticancer effects”.

COc1cccc(C=O)c1O [O -vanillin] was tested, and the “cell death (number of live cells)” value [1] was “demonstrated anticancer effects”, the “cell death (number of live cells)” value [2] was “demonstrated anticancer effects” and the “cell death (number of live cells)” value [3] was “demonstrated anticancer effects”.

In the case of COc1ccc(C(=O)O)cc1O [isovanillic acid], the “cell death (number of live cells)” value [1] is reported as “demonstrated anticancer effects”, the “cell death (number of live cells)” value [2] is reported as “demonstrated anticancer effects” and the “cell death (number of live cells)” value [3] is reported as “demonstrated anticancer effects”.

With COc1cc(C=O)ccc1O [vanillin] the “cell death (number of live cells)” value [1] was “demonstrated anticancer effects”, the “cell death (number of live cells)” value [2] was “demonstrated anticancer effects” and the “cell death (number of live cells)” value [3] was “demonstrated anticancer effects”.

CC1=NCCc2c1[nH]c1cc(O)ccc21.Cl [harmalol hydrochloride] was tested, and the “cell death (number of live cells)” value [1] was “demonstrated anticancer effects”, the “cell death (number of live cells)” value [2] was “demonstrated anticancer effects” and the “cell death (number of live cells)” value [3] was “demonstrated anticancer effects”.

In the case of COc1ccc(CO)cc1O [isovanillyl alcohol], the “cell death (number of live cells)” value [1] is reported as “demonstrated anticancer effects”, the “cell death (number of live cells)” value [2] is reported as “demonstrated anticancer effects” and the “cell death (number of live cells)” value [3] is reported as “demonstrated anticancer effects”.

Cc1nccc2c1[nH]c1cc(O)ccc12.Cl [harmole hydrochloride] was tested, and the “cell death (number of live cells)” value [1] was “demonstrated anticancer effects”, the “cell death (number of live cells)” value [2] was “demonstrated anticancer effects” and the “cell death (number of live cells)” value [3] was “demonstrated anticancer effects”.

In the case of COc1cccc2c1C(=O)c1c(O)c3c(c(O)c1C2=O)C[C@@](O)(C(=O)CO)C[C@@H]3O[C@H]1C[C@H](N)[C@H](O)[C@H](C)O1 [doxorubicin], the “cell death, doxorubicin alone” value (ovarian cancer cells) is reported as “ineffective”.
